Results taken from PMC6122585 (Bioconjugate chemistry, 2017).

What was measured:
[1] = tested on: SW480 ITGB6 high cells; experiment: Long-term cytotoxicity, SW480 ITGB6 high; type: cell-based, human; conditions: SW480 versus SW480 ITGB6 high, Figure S7
[2] = tested on: αvβ3; conditions: cited from earlier work
[3] = tested on: αvβ5; conditions: cited from earlier work

Substance | effect of ITGB6 transfection on sensitivity [1] | αvβ3 integrin targeting (in words) [2] | αvβ5 integrin targeting (in words) [3]
cilengitide (RGDFV; chains of the INN, looked up) | ITGB6 transfection did not impact on the sensitivity |  | 
c(RGDfK) |  | target αvβ3 and αvβ5 integrins | target αvβ3 and αvβ5 integrins
